Test results from article PMC10762078, “Role of UPF1-LIN28A interaction during early differentiation of pluripotent stem cells” (Nature Communications, 2024).

System: hPSCs
Test: RT-qPCR of pluripotency and germ-layer markers during differentiation with CPP-peptides (Supplementary Fig. 7b-e)
Assay type: cell-based, human
Method: For CPP-conjugated peptide delivery, HeLa, 293T, and PA-1 cells were incubated with CPP-conjugated peptides or CPP-FITC at 2 μM in DMEM with 10% FBS for 12 h a day before cell harvest. hPSCs were treated with CPP-conjugated peptides at 10 μM in mTeSR Plus Medium, and the peptide-containing medium was changed every day over 10 days. The ROCK inhibitor (Tocris Bioscience, Y-27632) treated-hPSCs were dissociated into single cells using Accutase (Merck, SCR005) and differentiated into ectoderm, mesoderm, and endoderm using the STEMdiff Trilineage Differentiation Kit ([…] Technologies, 05230) following the manufacturer’s protocol. Differentiated cells treated with CPP-conjugated peptides were analysed at 0, 3, and 5 days for ectoderm and endoderm, and at 0, 3, and 4 days for mesoderm. […]
cDNA was synthesised using RevertAid Reverse Transcriptase (Thermo Fisher Scientific, EP0441) with synthesised random hexamer (Macrogen) for total RNA or stem-loop primers for miRNA. For RT-qPCR reactions, the SensiFAST SYBR No-ROX kit (Meridian Bioscience) was used according to the manufacturer’s protocol. All data analysis and visualisation were conducted using R 3.6.1 [www.r-project.org] or GraphPad Prism 10. RT primers for miRNA and RT-qPCR primer sequences are provided in Supplementary Data 6. […]
FPKM of each gene was presented f r om RNA-seq analysis. b–e hPSCs wer e treated with the indicated peptide during each germ la ye r differentiation. […]
An unpaired Student’s t-test was used for a–e. Data are presented as mean values ± SEM. All statistical test us ed wer e two-s ided. T he m inim um number of independent biological replicate experim ents was a–f n = 3. T he experiments wer e conducted three tim es, each iteration producing consistent results.

[1] = Fig. s7d, day 3, mean of 3 replicates
[2] = Fig. s7d, day 4, mean of 3 replicates

N-QKLDQKELQLEPM-C [P1, reference compound]
CXCR4 (RT-qPCR) (Day 0, replicate 1, Fig. s7e): 1.088 | CXCR4 (RT-qPCR) (Day 0, replicate 2, Fig. s7e): 0.7848 | CXCR4 (RT-qPCR) (Day 0, replicate 3, Fig. s7e): 1.127 | CXCR4 (RT-qPCR) (Day 3, replicate 1, Fig. s7e): 801.652 | CXCR4 (RT-qPCR) (Day 3, replicate 2, Fig. s7e): 485.59 | CXCR4 (RT-qPCR) (Day 3, replicate 3, Fig. s7e): 555.318 | CXCR4 (RT-qPCR) (Day 5, replicate 1, Fig. s7e): 1042.02 | CXCR4 (RT-qPCR) (Day 5, replicate 2, Fig. s7e): 799.656 | CXCR4 (RT-qPCR) (Day 5, replicate 3, Fig. s7e): 801.596 | Mean CXCR4 (RT-qPCR) (CXCR4 day 3, mean of n = 3, Fig. s7e): 614.2 | Mean CXCR4 (RT-qPCR) (CXCR4 day 5, mean of n = 3, Fig. s7e): 881.1 | FOXA1 (RT-qPCR) (Day 0, replicate 1, Fig. s7e): 1.247 | FOXA1 (RT-qPCR) (Day 0, replicate 2, Fig. s7e): 1.413 | FOXA1 (RT-qPCR) (Day 0, replicate 3, Fig. s7e): 0.3396 | FOXA1 (RT-qPCR) (Day 3, replicate 1, Fig. s7e): 110.429 | FOXA1 (RT-qPCR) (Day 3, replicate 2, Fig. s7e): 100.761 | FOXA1 (RT-qPCR) (Day 3, replicate 3, Fig. s7e): 171.159 | FOXA1 (RT-qPCR) (Day 5, replicate 1, Fig. s7e): 247.532 | FOXA1 (RT-qPCR) (Day 5, replicate 2, Fig. s7e): 297.277 | FOXA1 (RT-qPCR) (Day 5, replicate 3, Fig. s7e): 395.679 | Mean FOXA1 (RT-qPCR) (FOXA1 day 5, mean of n = 3, Fig. s7e): 313.5 | SOX2 mRNA level (RT-qPCR), mean (Fig. s7b, mesoderm, day 4, mean of 3 replicates): 0.001971 | BMP2 mRNA level (RT-qPCR) (Fig. s7d, Day 0, replicate 1): 0.8054 | BMP4 mRNA level (RT-qPCR) (Fig. s7d, Day 0, replicate 1): 1.545 | CDH2 mRNA level (RT-qPCR) (Fig. s7d, Day 0, replicate 1): 1.016 | CXCR4 mRNA level (RT-qPCR) (Fig. s7d, Day 0, replicate 1): 0.9995 | SNAI1 mRNA level (RT-qPCR) (Fig. s7d, Day 0, replicate 1): 1.4406 | TBXT mRNA level (RT-qPCR) (Fig. s7d, Day 0, replicate 1): 1.3 | BMP2 mRNA level (RT-qPCR) (Fig. s7d, Day 0, replicate 2): 1.199 | BMP4 mRNA level (RT-qPCR) (Fig. s7d, Day 0, replicate 2): 0.6508 | CDH2 mRNA level (RT-qPCR) (Fig. s7d, Day 0, replicate 2): 0.7569 | CXCR4 mRNA level (RT-qPCR) (Fig. s7d, Day 0, replicate 2): 1.121 | SNAI1 mRNA level (RT-qPCR) (Fig. s7d, Day 0, replicate 2): 0.9418 | TBXT mRNA level (RT-qPCR) (Fig. s7d, Day 0, replicate 2): 0.8652 | BMP2 mRNA level (RT-qPCR) (Fig. s7d, Day 0, replicate 3): 0.9954 | BMP4 mRNA level (RT-qPCR) (Fig. s7d, Day 0, replicate 3): 0.8046 | CDH2 mRNA level (RT-qPCR) (Fig. s7d, Day 0, replicate 3): 1.227 | CXCR4 mRNA level (RT-qPCR) (Fig. s7d, Day 0, replicate 3): 0.8798 | SNAI1 mRNA level (RT-qPCR) (Fig. s7d, Day 0, replicate 3): 0.6176 | TBXT mRNA level (RT-qPCR) (Fig. s7d, Day 0, replicate 3): 0.8351 | BMP2 mRNA level (RT-qPCR) (Fig. s7d, Day 3, replicate 1): 1.069 | BMP4 mRNA level (RT-qPCR) (Fig. s7d, Day 3, replicate 1): 26.604 | CDH2 mRNA level (RT-qPCR) (Fig. s7d, Day 3, replicate 1): 19.4651 | CXCR4 mRNA level (RT-qPCR) (Fig. s7d, Day 3, replicate 1): 690.154 | SNAI1 mRNA level (RT-qPCR) (Fig. s7d, Day 3, replicate 1): 17.0238 | TBXT mRNA level (RT-qPCR) (Fig. s7d, Day 3, replicate 1): 6332.26 | BMP2 mRNA level (RT-qPCR) (Fig. s7d, Day 3, replicate 2): 1.012 | BMP4 mRNA level (RT-qPCR) (Fig. s7d, Day 3, replicate 2): 28.0652 | CDH2 mRNA level (RT-qPCR) (Fig. s7d, Day 3, replicate 2): 19.9537 | CXCR4 mRNA level (RT-qPCR) (Fig. s7d, Day 3, replicate 2): 760.409 | SNAI1 mRNA level (RT-qPCR) (Fig. s7d, Day 3, replicate 2): 25.1744 | TBXT mRNA level (RT-qPCR) (Fig. s7d, Day 3, replicate 2): 7659.6 | BMP2 mRNA level (RT-qPCR) (Fig. s7d, Day 3, replicate 3): 1.524 | BMP4 mRNA level (RT-qPCR) (Fig. s7d, Day 3, replicate 3): 46.0509 | CDH2 mRNA level (RT-qPCR) (Fig. s7d, Day 3, replicate 3): 27.2966 | CXCR4 mRNA level (RT-qPCR) (Fig. s7d, Day 3, replicate 3): 857.014 | SNAI1 mRNA level (RT-qPCR) (Fig. s7d, Day 3, replicate 3): 26.6105 | TBXT mRNA level (RT-qPCR) (Fig. s7d, Day 3, replicate 3): 10449.6 | BMP2 mRNA level (RT-qPCR) (Fig. s7d, Day 4, replicate 1): 0.2301 | BMP4 mRNA level (RT-qPCR) (Fig. s7d, Day 4, replicate 1): 13.0546 | CDH2 mRNA level (RT-qPCR) (Fig. s7d, Day 4, replicate 1): 16.734 | CXCR4 mRNA level (RT-qPCR) (Fig. s7d, Day 4, replicate 1): 712.401 | SNAI1 mRNA level (RT-qPCR) (Fig. s7d, Day 4, replicate 1): 5.736 | TBXT mRNA level (RT-qPCR) (Fig. s7d, Day 4, replicate 1): 3587.41 | BMP2 mRNA level (RT-qPCR) (Fig. s7d, Day 4, replicate 2): 0.3418 | BMP4 mRNA level (RT-qPCR) (Fig. s7d, Day 4, replicate 2): 14.5702 | CDH2 mRNA level (RT-qPCR) (Fig. s7d, Day 4, replicate 2): 18.1378 | CXCR4 mRNA level (RT-qPCR) (Fig. s7d, Day 4, replicate 2): 778.248 | SNAI1 mRNA level (RT-qPCR) (Fig. s7d, Day 4, replicate 2): 15.183 | TBXT mRNA level (RT-qPCR) (Fig. s7d, Day 4, replicate 2): 4442.19 | BMP2 mRNA level (RT-qPCR) (Fig. s7d, Day 4, replicate 3): 0.2814 | BMP4 mRNA level (RT-qPCR) (Fig. s7d, Day 4, replicate 3): 11.4814 | CDH2 mRNA level (RT-qPCR) (Fig. s7d, Day 4, replicate 3): 17.3255 | CXCR4 mRNA level (RT-qPCR) (Fig. s7d, Day 4, replicate 3): 495.057 | SNAI1 mRNA level (RT-qPCR) (Fig. s7d, Day 4, replicate 3): 11.0955 | TBXT mRNA level (RT-qPCR) (Fig. s7d, Day 4, replicate 3): 3830.03 | SNAI1 mRNA level (RT-qPCR), mean [1]: 22.94 | TBXT mRNA level (RT-qPCR), mean [1]: 8147 | BMP4 mRNA level (RT-qPCR), mean [2]: 13.04 | CDH2 mRNA level (RT-qPCR), mean [2]: 17.4 | TBXT mRNA level (RT-qPCR), mean [2]: 3953 | GATA4 (RT-qPCR) (Day 0, replicate 1, Fig. s7e): 0.7242 | GATA4 (RT-qPCR) (Day 0, replicate 2, Fig. s7e): 1.3517 | GATA4 (RT-qPCR) (Day 0, replicate 3, Fig. s7e): 0.9241 | GATA4 (RT-qPCR) (Day 3, replicate 1, Fig. s7e): 30.0473 | GATA4 (RT-qPCR) (Day 3, replicate 2, Fig. s7e): 43.5025 | GATA4 (RT-qPCR) (Day 3, replicate 3, Fig. s7e): 37.4013 | GATA4 (RT-qPCR) (Day 5, replicate 1, Fig. s7e): 61.3703 | GATA4 (RT-qPCR) (Day 5, replicate 2, Fig. s7e): 60.3509 | GATA4 (RT-qPCR) (Day 5, replicate 3, Fig. s7e): 57.9664 | SOX17 (RT-qPCR) (Day 0, replicate 1, Fig. s7e): 1.264 | SOX17 (RT-qPCR) (Day 0, replicate 2, Fig. s7e): 0.8709 | SOX17 (RT-qPCR) (Day 0, replicate 3, Fig. s7e): 0.8647 | SOX17 (RT-qPCR) (Day 3, replicate 1, Fig. s7e): 1651.55 | SOX17 (RT-qPCR) (Day 3, replicate 2, Fig. s7e): 1098.49 | SOX17 (RT-qPCR) (Day 3, replicate 3, Fig. s7e): 1780.82 | SOX17 (RT-qPCR) (Day 5, replicate 1, Fig. s7e): 1087.63 | SOX17 (RT-qPCR) (Day 5, replicate 2, Fig. s7e): 1382.51 | SOX17 (RT-qPCR) (Day 5, replicate 3, Fig. s7e): 1398.03
